Entries after “also recorded” stand apart in the source; their conditions may differ.
Assays:
human SMCs = experiment: CellTiter-Glo luminescent cell viability assay, SMCs; format: cell-based; settings: 200 nM
Procedure: Freshly collected HuAoSMCs (passage 5) were counted ([…]) by Cellometer AutoT4 (Nexelon Bioscience), and dispensed using Microflo Select (BioTek) to a final density of 2700 cells/[…]/well in the SmGM-2 medium in a 96-well plate. After a 24 hour incubation to allow cell attachment, […] of DMSO (vehicle) or […] of resveratrol (a known SMC growth inhibitor) stock in DMSO was robotically transferred using Biomek FX (Beckman) from a resveratrol stock plate into cell culture (final […] resveratrol). DMSO and resveratrol were added into alternate columns of wells (8 wells per column). Cell growth/proliferation was monitored by reading fluorescence from the AlamarBlue® cell viability reagent (Invitrogen). See Antczak et al., J. Biomol. […] After incubation with resveratrol for 72 hours, AlamarBlue reagent was added using Matrix Hydra (Thermo-Fisher) and incubated with cells for another 24 hours, and fluorescence was then determined using a Safir2 plate reader (Tecan, excitation/fluorescence: 530 nm/590 nm, bandwidth: 15 nm). The data from 40 wells of vehicle and 40 wells of resveratrol treatments were analyzed for assessment of well-well consistency in the assay. […] It was determined that reading Alamar Blue fluorescence 24 hours after incubation reduced variance compared to reading after shorter incubation (e.g., 4 hours). […]

human ECs = experiment: CellTiter-Glo luminescent cell viability assay, ECs; format: cell-based; settings: 200 nM
Description: For human SMCs, cell densities ranging from about 1,000 cells per well to about 5,000 cells per well were aliquoted into 96-well plates and cultured in the SmGM-2 medium (Lonza CC-3182) with 5% serum.
This robust well-to-well consistency achieved by our experimental system is better reflected by a Z′ value of 0.63. […] See, e.g., Tomasini-Johansson et al., J. Intl. Soc. Matrix Biol. (2012); Zhang et al., J. Biomol. Screening 4:67-73 (1999); Patel et al., PloS One 7:e36594 (2012). In parallel experiments, a CellTiter-Glo® luminescent cell viability assay (Cat. #7570, Promega), which quantifies ATP levels in cell lysates, was evaluated as an additional and more sensitive orthologous assay for cell number. Sachsenmeier et al., PLoS One 17:993-8 (2012). Using the CellTiter-Glo® assay, Rapamycin which is used in drug-eluting stents at 200 nM produced >50% inhibition of both human SMCs and ECs with Z′ values of 0.56 to 0.75 respectively (FIG. 2). In addition, CellTiter-Glo® assays using resveratrol for both SMCs and ECs also produced high Z′ values (>0.7) (data not shown). Curve fitting was performed with the Prism software (GraphPad).

[1] = tested on: balloon-injured rat carotid arteries; experiment: Rat carotid balloon angioplasty model, perivascular drug delivery in pluronic gel; format: in vivo, Male Sprague-Dawley rats
Procedure: Balloon injury of the left common carotid artery was performed in Male Sprague-Dawley rats (300-350 g) according to the method described previously (Kundi et al., Cardiovasc Res. 84(2):326-35 (2009). Briefly, after induction of anesthesia with isoflurane, a 2F balloon catheter was inserted through the left external carotid artery into the common carotid and insufflated three times at 2 atm of pressure. The external carotid artery was then ligated, and blood flow was resumed through the common and internal carotid arteries. For perivascular drug delivery, resveratrol (500 μg) or halofuginone (30 μg) or DMSO dissolved in 200 μL of 25% F127 pluronic gel (Sigma-Aldrich) in PBS was evenly applied, immediately after reestablishment of flow, around the injured segment of the carotid artery (5 animals in each group). The pluronic gel is a biodegradable polymer that is soluble in water at 4° C. but becomes a gel when in contact with tissues at 37° C. (Ji et al., Circ. Res. 100:1579-88 (2007)). Rats were euthanized 14 days after injury, and the common carotid arteries were collected and fixed in 4% paraformaldehyde overnight for embedding in paraffin.
For morphometric analysis of intimal hyperplasia, ten evenly spaced sections through each injured carotid artery were stained using routine hematoxylin and eosin (H&E) and images were collected with light microscopy. Intimal and medial areas and circumference were determined by measuring the internal elastic lamina (IEE) and external elastic lamina (EEL) for each section using the ImageJ software (National Institutes of Health). Kundi et al., Cardiovasc. Res. 84:326-35 (2009); Kingston et al., Circulation 108:2819-25 (2003). The difference in intimal hyperplasia between the compound treatment group and the control group was analyzed with the Student t-test (P<0.05).
To mark endothelial cells, immunohistochemistry using an anti-CD31 antibody was performed on rat carotid sections based on our published methods. Suwanabol et al., Am J Physiol Heart Circ Physiol. 302:H2211-19 (2012); Kundi et al., Cardiovasc. Res. 84:326-35 (2009); Si et al., Arterioscler. Thromb. Vasc. Biol. 32:943-54 (2012). Briefly, the carotid sections were incubated with the anti-CD31 antibody (Santa Cruz Biotechnology) overnight at 4° C., followed by rhodamine-conjugated secondary antibody (DAKO) for 60 minutes at room temperature. Antibody controls included species-matched IgG. Images were taken with a fluorescence microscope.
Balloon angioplasty was performed in the left common carotid artery of male Sprague-Dawley rats. Immediately after resuming the blood flow, idarubicin (110 μg) or DMSO control dissolved in 300 μL of 25% F127 pluronic gel was applied around the injured artery. At 14 days after injury, arteries were collected and cross-sections were prepared and H&E stained. Intimal and medial areas, and circumference were determined by measuring the internal elastic lamina (IEE) and external elastic lamina (EEL) for each section using the ImageJ software. The difference in intimal hyperplasia (ratio of intima to media) between the idarubicin treatment group and the control group was analyzed with the Student t-test (P<0.05). Immunostaining of CD31, an endothelial cell marker, was performed on the sections to assess re-endothelialization.
Using the carotid artery sections collected on day 14 following angioplasty, we performed immunostaining for CD31 (FIGS. 10A-C), a commonly used marker for assessment of the endothelium, in a rat carotid injury model at 14 days. Briefly, a goat anti-CD31 primary antibody (R&D Sytems, 1:150) was incubated with the sections for 1 hour followed by an incubation with a biotinylated rabbit-anti-goat secondary antibody for 30 minutes. Immunostaining of CD31 was then visualized by using streptavidin-HRP and DAB.

[2] = tested on: primary human aortic smooth muscle cells (HuAoSMCs); experiment: AlamarBlue cell viability assay of HuAoSMC proliferation (automated HTS); format: cell-based
Description: Alamar Blue was purchased from Invitrogen (Carlsbad, Calif.). Cell Titer Glo was from Promega (Madison, Wis.). Primary human aortic smooth muscle cells (HuAoSMCs) and primary human aortic endothelial cells (HuAoECs) at passage 3 were purchased from Lonza; their respective optimal culture media (SmGM-2 and EGM-2) were from the same commercial source. Cells were used at passage 5 after expansion. Trypsin/EDTA solution was from Clonetics (Walkersville, Md.); and DPBS was from Gibco (Invitrogen, Carlsbad, Calif.). Microtiter tissue 96-well culture plates with transparent flat-bottoms and black-walled sides were from Costar (Corning, N.Y.). Resveratrol and idarubicin were products of Sigma-Aldrich (St. Louis, Mo.). […]
Freshly collected HuAoSMCs (passage 5) were counted ([…]) by Cellometer AutoT4 (Nexelon Bioscience), and dispensed using Microflo Select (BioTek) to a final density of 2700 cells/[…]/well in the SmGM-2 medium in a 96-well plate. […] Cell growth/proliferation was monitored by reading fluorescence from the AlamarBlue® cell viability reagent (Invitrogen). […] After incubation with resveratrol for 72 hours, AlamarBlue reagent was added using Matrix Hydra (Thermo-Fisher) and incubated with cells for another 24 hours, and fluorescence was then determined using a Safir2 plate reader (Tecan, excitation/fluorescence: 530 nm/590 nm, bandwidth: 15 nm). […]

[3] = tested on: primary human aortic endothelial cells (HuAoECs); experiment: Counter-screen / dose response proliferation assay, HuAoECs
HuAoSMCs = experiment: Dose response proliferation assay, HuAoSMCs (96-well plate); format: cell-based, human
Procedure: FIGS. 5A-B present comparative dose responses of HuAoSMCs and HuAoECs for idarubicin (A) and resveratol (B).
Cryo-protected frozen HuAoSMCs and HuAoECs (Lonza, passage 3) were thawed and cultured in their respective media that are optimized for cell growth by the manufacturer. HuAoSMCs (“SMCs”) were grown in the SmGM-2 medium containing 5% FBS, and HuAoECs (“ECs”) in the EGM-2 medium containing 2% FBS in a humidified incubator at 37° C. with 5% CO2.

[4] = tested on: balloon-injured rat carotid arteries; experiment: Rat carotid balloon angioplasty model, perivascular drug delivery in pluronic gel; format: in vivo, Male Sprague-Dawley rats; remark: listed apart in the source
[5] = halofuginone 30 μg in 200 μL pluronic gel, 14 days
[6] = relative to controls not contacted to idarubicin formulation
[7] = medium dose 0.5 mg/mL in pluronic gel
[8] = Example 5, local perivascular application, day 14 following angioplasty, 5 rats
[9] = idarubicin applied locally around injured artery, day 14

SMILES: CO[C@H]1C[C@@H]2CC[C@@H](C)[C@@](O)(O2)C(=O)C(=O)N2CCCC[C@H]2C(=O)O[C@H]([C@H](C)C[C@@H]2CC[C@@H](O)[C@H](OC)C2)CC(=O)[C@H](C)/C=C(\C)[C@@H](O)[C@@H](OC)C(=O)[C@H](C)C[C@H](C)/C=C/C=C/C=C/1C [Rapamycin]
- inhibition at 0.2 µM (human SMCs): > 50%
- inhibition at 0.2 µM (human ECs): > 50%

SMILES: O=C(CC1NCCCC1O)Cn1cnc2cc(Br)c(Cl)cc2c1=O (stereo not shown) [halofuginone]
- effect on intimal hyperplasia, in words [1, 5]: inhibits intimal hyperplasia
- effect on re-endothelialization (CD31 staining), in words [1, 5]: not re-endothelialization; also recorded: not affected
- reduction of intimal hyperplasia (intima/media ratio) ([1]; halofuginone 30 μg in 200 μL pluronic gel, periadventitial, 14 days after injury): 74%
- SMC growth in cell assays, in words [2]: inhibit SMC growth

SMILES: CC(=O)[C@]1(O)Cc2c(O)c3c(c(O)c2[C@@H](O[C@H]2C[C@H](N)[C@H](O)[C@H](C)O2)C1)C(=O)c1ccccc1C3=O [idarubicin, (7S,9S)-9-Acetyl-7-[(3-amino-2,3,6-trideoxy-α-L-lyxo-hexapyranosyl)oxy]-7,8,9,10-tetrahydro-6,9,11-trihydroxy-5,12-naphtacenedione]
- SMC versus EC preference in counter-screen of EC proliferation, in words ([3]; counter-screen): preferentially inhibits SMCs over ECs
- inhibition of endothelial cell proliferation [3, 6]: less than 40%
- SMC versus EC proliferation, dose response (in words) (HuAoSMCs; approximately 50 nM to 1000 nM): impedes SMC proliferation to a significantly greater extent than ECs; also recorded: differentially inhibited SMC proliferation with a lesser effect on ECs
- inhibition of smooth muscle cell proliferation (HuAoSMCs; [6]): up to 80%
- cytotoxicity in surrounding tissues ([4]; highest dose 1 mg/mL in pluronic gel): slight cytotoxicity
- cytotoxicity in surrounding tissues ([4]; lowest dose 0.2 mg/mL in pluronic gel): without showing cytotoxicity
- inhibition of intimal hyperplasia ([4]; lowest dose 0.2 mg/mL in pluronic gel (data not shown)): > 70%
- cytotoxicity in surrounding tissues [4, 7]: without showing cytotoxicity
- inhibition of intimal hyperplasia [4, 7]: > 70%
- increase of lumen size [1, 8]: 45%
- reduction of intimal hyperplasia [1, 8]: 80%
- effect on intimal hyperplasia (intima/media), in words [1, 9]: effectively reduced; also recorded: inhibitory effect; also recorded: inhibits intimal hyperplasia in a dose-dependent manner
- effect on re-endothelialization (CD31 staining), in words [1, 9]: not affected; also recorded: absence of idarubicin's effect; also recorded: preserves and promotes re-endothelialization; also recorded: no substantial impairment; also recorded: no significant effect
- reduction of intimal hyperplasia ([1]; local application, dose not stated at the place (Example 3)): 70%

SMILES: Oc1ccc(C=Cc2cc(O)cc(O)c2)cc1 [resveratrol]
- inhibition of the intima/media ratio ([1]; resveratrol 500 μg in 200 μL pluronic gel, perivascular, 14 days after injury): 84%
- SMC growth in cell assays, in words [2]: inhibit SMC growth
